From US20170105969A1, “CENICRIVIROC FOR THE TREATMENT OF HIV-2 INFECTION” (Tobira Therapeutics, Inc., priority 2014, published 2017)
Marks after values point to notes of the source that are not given here.

Assays:
CCR4 = target: T1, CCR4 (Homo sapiens, UniProt P51679); assay: Ligand binding to CCR4
T1 sequence (P51679 1-360): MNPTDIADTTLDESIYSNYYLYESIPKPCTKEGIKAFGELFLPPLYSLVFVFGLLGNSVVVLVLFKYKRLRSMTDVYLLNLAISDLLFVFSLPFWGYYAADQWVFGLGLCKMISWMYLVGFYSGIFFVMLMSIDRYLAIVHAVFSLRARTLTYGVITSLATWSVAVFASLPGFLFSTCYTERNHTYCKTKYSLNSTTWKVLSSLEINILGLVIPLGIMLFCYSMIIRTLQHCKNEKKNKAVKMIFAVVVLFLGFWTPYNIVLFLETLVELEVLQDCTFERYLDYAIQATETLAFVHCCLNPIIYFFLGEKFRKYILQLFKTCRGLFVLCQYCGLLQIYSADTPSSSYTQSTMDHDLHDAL

CCR5-tropic HIV-1 BaL = assay: PM-1 cells infected with HIV-1 BaL, supernatant P24 and viral load after 4 hours; type: cell-based; details: CVC 20 nM or MVC 50 nM
Protocol: Early (strong-stop) and late (full-length) reverse transcript levels were measured by qPCR. […] P24 and viral load levels were measured by ELISA and qRT-PCR after 4 hours.

HIV-1 = assay: Study 202: virologic response (plasma HIV-1 RNA <50 copies/mL), Snapshot algorithm, ITT; type: in vivo, human
HIV-2 clinical isolates = assay: HIV-2 phenotypic susceptibility, ANRS PBMC method; type: cell-based; details: for EC50: Human immunodeficiency virus 2, PBMC
Protocol: All patients were infected with HIV-2 group A. Tropism was determined phenotypically using Ghost(3) cell lines expressing CD4 receptor and one HIV coreceptor, CCR5 or CXCR4. Both Ghost(3) cell lines carries a humanized green fluorescent protein (GFP) gene, under the control of a HIV-2 LTR. […] Ghost(3) cells were provided by the NIH AIDS Reagent program.
Briefly, cell-free HIV-2 positive supernatant was serially diluted (1, 10^−1, and 10^−2) and incubated with PBMC for viral titration. Viruses were tested at a 100 TCID50 titration. Cells were pre-incubated with cenicriviroc or maraviroc at an appropriate concentration 1 hour before viral infection. Six serial dilutions of the antiretroviral drug were tested in quadruplicate. On day 4, viral replication was assessed by a specific viral load assay (Generic HIV-2 viral load, Biocentric, France).

CCR7 = target: T2, CCR7 (Homo sapiens, UniProt P32248); assay: Ligand binding to CCR7
T2 sequence (P32248 25-378): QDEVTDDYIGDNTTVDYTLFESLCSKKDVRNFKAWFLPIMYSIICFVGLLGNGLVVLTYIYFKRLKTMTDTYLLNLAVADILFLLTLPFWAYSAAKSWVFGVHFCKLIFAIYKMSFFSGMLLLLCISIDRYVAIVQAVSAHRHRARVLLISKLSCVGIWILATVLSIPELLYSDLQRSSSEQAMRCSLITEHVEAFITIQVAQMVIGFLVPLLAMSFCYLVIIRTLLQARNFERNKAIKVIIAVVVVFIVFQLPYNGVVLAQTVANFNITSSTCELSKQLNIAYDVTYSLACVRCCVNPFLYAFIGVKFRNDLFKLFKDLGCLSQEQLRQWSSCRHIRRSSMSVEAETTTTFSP

[1] = Study 201: safety and tolerability (adverse events); type: in vivo, human
Protocol: Subjects were antiretroviral treatment experienced, CCR5 antagonist-naïve, with HIV-1 RNA levels of at least 5000 copies/mL and CD4+ cell counts of at least 250 cells/mm^3. Subjects with HIV-2, hepatitis B virus, or hepatitis C virus co-infection or dual/mixed-tropic HIV-1 were ineligible. Other than their HIV-1 infection, subjects were generally healthy.
In this study, all dose groups received the original formulation (DP3_25), except the 100 mg dose group which received an alternative formulation (DP4_100). […] These subjects were excluded from the efficacy, PK, and PK/PD data, but included in the baseline and safety data. In this study, safety and tolerability were assessed by monitoring AEs, vital signs, ECGs, clinical laboratory values from blood and urine, and physical examinations. Data from all subjects on placebo were pooled for the analyses.

[2] = APRI and FIB-4 fibrosis scores, post-hoc analysis of Study 202; type: in vivo, human
Protocol: Change in score category from baseline (BL) to Weeks 24 and 48 was assessed in patients with non-missing data. Correlations between changes from BL in APRI and FIB-4 scores, and MCP-1 (CCR2 ligand) and sCD14 (inflammatory biomarker) levels were evaluated.

[3] = HIV-2 isolate 10-046, group A, R5
[4] = HIV-2 isolate 10-051, group A, R5
[5] = HIV-2 isolate 10-055, group A, X4
[6] = HIV-2 isolate 10-056, group A, R5
[7] = HIV-2 isolate 10-069, group A, Dual
[8] = HIV-2 isolate 10-074, group A, R5
[9] = among subjects on CVC presenting with a AE (n=30)

CCCCOCCOc1ccc(-c2ccc3c(c2)/C=C(/C(=O)Nc2ccc([S@@+]([O-])Cc4cncn4CCC)cc2)CCCN3CC(C)C)cc1 [CVC, (S)-8-[4-(2-Butoxyethoxy)phenyl]-1-isobutyl-N-(4-{[(1-propyl-1H-imidazol-5-yl)methyl]sulfinyl}phenyl)-1,2,3,4-tetrahydro-1-benzazocine-5-carboxamide]
inhibition of ligand binding (in words) (CCR4): weakly inhibited
supernatant P24 (CCR5-tropic HIV-1 BaL; 0 hrs (baseline)): 506 ng/mL
viral load (CCR5-tropic HIV-1 BaL; 0 hrs): 1.19×10^10 copies/ml
supernatant P24 (CCR5-tropic HIV-1 BaL; 4 hrs): 192 ng/mL
viral load (CCR5-tropic HIV-1 BaL; 4 hrs): 1.26×10^10 copies/ml
HIV-1 RNA ≧50 but <400 copies/mL (HIV-1; Week 24, CVC 100 mg arm): (5%)^d
HIV-1 RNA ≧400 copies/mL (HIV-1; Week 24, CVC 200 mg arm): (7%)
virologic non-response, subgroup with high baseline viral load (≧100,000 copies/mL) (HIV-1; Week 48, CVC 100 mg): 20%
Treatment difference from EFV arm (HIV-1; Week 48, CVC 100 mg arm): 18%
virologic non-response, subgroup with high baseline viral load (≧100,000 copies/mL) (HIV-1; Week 48, CVC 200 mg): 21%
Discontinued study due to AE or death (HIV-1; Week 48, CVC 200 mg arm): (2%)
Treatment difference from EFV arm (HIV-1; Week 48, CVC 200 mg arm): 16%
Week 48 non-response, CVC-treated Black or African American subjects (HIV-1; Week 48, both CVC arms): 8-15%
MPI (%) (HIV-2 clinical isolates; [3]): 94%
MPI (%) (HIV-2 clinical isolates; [4]): 93%
MPI (%) (HIV-2 clinical isolates; [5]): 4%
MPI (%) (HIV-2 clinical isolates; [6]): 94%
MPI (%) (HIV-2 clinical isolates; [7]): 33%
MPI (%) (HIV-2 clinical isolates; [8]): 98%
EC50 (HIV-2 clinical isolates; [3]): 0.03 nM
EC50 (HIV-2 clinical isolates; [4]): 0.45 nM
EC50 (HIV-2 clinical isolates; [5]): > 1000 nM
EC50 (HIV-2 clinical isolates; [6]): 0.33 nM
EC50 (HIV-2 clinical isolates; [7]): > 1000 nM
EC50 (HIV-2 clinical isolates; [8]): 0.98 nM
inhibition of ligand binding (in words) (CCR7): did not inhibit
treatment-emergent AE: diarrhea [1]: 16.7%
treatment-emergent AE: fatigue [1]: 11.0%
treatment-emergent AE: headache [1]: 14.8%
treatment-emergent AE: nausea [1]: 18.5%
subjects with mild AEs [1, 9]: 80%
subjects with moderate AEs [1, 9]: 17%
tolerability (in words) ([1]; doses between 25 mg and 150 mg): generally well tolerated
patients in APRI category 0.5-1.5 ([2]; Baseline): 14%
patients in APRI category <0.5 ([2]; Baseline): 84%
patients in APRI category >1.5 ([2]; Baseline): 2%
patients in FIB-4 category 1.45-3.25 ([2]; Baseline): 17%
patients in FIB-4 category <1.45 ([2]; Baseline): 82%
patients in FIB-4 category >3.25 ([2]; Baseline): 1%
APRI: Decreased 1 category from baseline ([2]; Week 24): 14%
FIB-4: Decreased 1 category from baseline ([2]; Week 24): 13%
patients in APRI category 0.5-1.5 ([2]; Week 24): 7%
patients in APRI category <0.5 ([2]; Week 24): 93%
patients in FIB-4 category 1.45-3.25 ([2]; Week 24): 7%
patients in FIB-4 category <1.45 ([2]; Week 24): 93%
APRI: Decreased 1 category from baseline ([2]; Week 48): 10%
FIB-4: Decreased 1 category from baseline ([2]; Week 48): 14%
patients in APRI category 0.5-1.5 ([2]; Week 48): 8%
patients in APRI category <0.5 ([2]; Week 48): 91%
patients in APRI category >1.5 ([2]; Week 48): 1%
patients in FIB-4 category 1.45-3.25 ([2]; Week 48): 5%
patients in FIB-4 category <1.45 ([2]; Week 48): 94%
patients in FIB-4 category >3.25 ([2]; Week 48): 1%
